Source: patent US8377874
Read-outs that look alike come from different tables or passages of the source.

Conditions: rcm bond, Zhan catalyst 1B

Question: For `COc1cc2nc(-c3ccccc3)cc3c2cc1C=CCCCOC(=O)N[C@H]1CCCCCC=C[C@@H]2C[C@@]2(C(=O)NS(=O)(=O)C2CC2)NC(=O)[C@@H]2C[C@H](CN2C1=O)O3`, which ring closure, yield of all isomers (from C=CCCCCC[C@H](NC(=O)OCCCC=C)C(=O)N1C[C@H](Oc2cc(-c3ccccc3)nc3cc(OC)c(C=C)cc23)C[C@H]1C(=O)N[C@]1(C(=O)NS(=O)(=O)C2CC2)C[C@H]1C=C, 1,2-dichloroethane, 4.73 mM, 90.0 °C, 3.0 h) is on record?
Answer: Its ring closure, yield of all isomers is 6.1%.

Question: With `CCOC(=O)[C@@]12C[C@H]1/C=C\CCCCC[C@H](NC(=O)OC(C)(C)C)C(=O)N1C[C@H](Oc3nccc4cc(OC)c(Br)cc34)C[C@H]1C(=O)N2` as the compound, how does the ring closure, yield of all isomers (from C=CCCCCC[C@H](NC(=O)OC(C)(C)C)C(=O)N1C[C@H](Oc2nccc3cc(OC)c(Br)cc23)C[C@H]1C(=O)N[C@]1(C(=O)OCC)C[C@H]1C=C, DCM, 10.15 mM, 40.0 °C, 2.0 h) read?
Answer: The ring closure, yield of all isomers was 70.1%.

Question: Which ring closure, yield of all isomers (from C=CCC(C)(C)COC(=O)N[C@H]1CCCCC/C=C\[C@@H]2C[C@@]2(C(=O)OCC)NC(=O)[C@@H]2C[C@@H](Oc3nccc4cc(OC)c(C=C)cc34)CN2C1=O, DCM, 10.2 mM, 40.0 °C, 5.0 h) does the source give for `CCOC(=O)[C@@]12C[C@H]1/C=C\CCCCC[C@@H]1NC(=O)OCC(C)(C)CC=Cc3cc4c(nccc4cc3OC)O[C@@H]3C[C@@H](C(=O)N2)N(C3)C1=O` here?
Answer: The ring closure, yield of all isomers was 80.8%.

Question: For `CCOC(=O)[C@@]12C[C@H]1C=CCCCCC[C@@H]1NC(=O)OCC(C)(C)CC=Cc3cc4c(cc(-c5ccccc5)nc4cc3OC)O[C@@H]3C[C@@H](C(=O)N2)N(C3)C1=O`, which ring closure, yield of all isomers (from C=CCCCCC[C@H](NC(=O)OCC(C)(C)CC=C)C(=O)N1C[C@H](Oc2cc(-c3ccccc3)nc3cc(OC)c(C=C)cc23)C[C@H]1C(=O)N[C@]1(C(=O)OCC)C[C@H]1C=C, DCM, 5.0 mM, 40.0 °C, 7.0 h) is on record?
Answer: The ring closure, yield of all isomers was 49%.
